Results published in patent US20260210856A1, “CONJUGATED OLIGOELECTROLYTES WITH BORON-DIPYRROMETHENE CORES AND METHODS THEREOF” (National University of Singapore, priority 2022, published 2026).

How the values were obtained:
[1] = Fluorescence lifetime in water:glycerol mixtures of varying viscosities; format: physicochemical; details: 590 nm, 20° C.
Experimental: The BODIPY unit of COE-BYs are sensitive to the viscosity of its environment. As an example, COE-BYPhMe was added to mixtures of water and glycerol at various ratios. The viscosity of the local environment has the most significant effect on its emission intensity and emission lifetime. The plot of log τ (fluorescence lifetime) versus log η (solvent viscosity) is fitted by a straight line.
We examined the sensitivity of COE-BYs to changes in viscosity in solution by using different glycerol and water mixtures. The viscosities of the solutions were increased through increases of the glycerol fraction. Of interest was the relationship between the viscosity (η) and the amplitude-weighted average emission lifetime (τw), which is defined by
Each individual lifetime component Tr is normalized to the corresponding amplitude (Ai) derived from fitting the emission decay to a multiexponential model, where p is the total number of exponents (1 or 2). […] It is known that increases in environmental viscosity restricts the rotation of the phenyl rings surrounding the BODIPY unit, which diminishes non-radiative decay pathways of the excited state, resulting in longer fluorescence lifetimes. […] Due to the low emission, we could not accurately extract emission lifetimes from the fluorescence decays of COE-BYPhCN and COE-BYPhNO.

[2] = Analyte viscosity sensing: fluorescence lifetime in the presence of different analytes; format: physicochemical; details: 0.5 μM
Experimental: Solutions of bovine serum albumin (BSA), high density lipoprotein (HDL), Liposomes of POPC:POPG 85:15 (SUVs) and Liposomes of POPC:POPG:Cholesterol 42.5:7.5:50 (SUV CHOL) were prepared at final concentrations of 1 mg/mL in PBS. COE-BYs were prepared at 1 μM in PBS. 150 μL of analyte and 150 μL of COE-BYs were mixed and incubated for 1 hour at 37C. Fluorescent emission profiles were measured with excitation at 545 nm.

[3] = Fluorescence imaging of stained GUVs; format: physicochemical; details: POPC GUV, normal light
From the text: Giant unilamellar vesicles (GUVs) composed of 1-palmitoyl-2-oleoyl-glycero-3-phosphocholine (POPC) were chosen as the model membrane system for the initial studies because of their ideal size (diameter>1 μm) for imaging via optical microscopy. […] COE-BY series are thus embedded within the bilayer as membrane-spanning probes, a geometric consideration relevant to measuring membrane tension across the whole lipid bilayer, instead of a single leaflet.

[4] = system: HeLa cells; assay: Uptake after pretreatment with endocytic inhibitors, flow cytometry; format: cell-based; details: 1 μM dye, 3 h
Experimental: (§1) To further understand the internalization of COE-BYPhOC4, A549 and HeLa cells were pretreated with endocytic inhibitors including pharmacological treatments genistein (caveolae-dependent), chlorpromazine (clathrin-dependent) and low temperature (energy-dependent). Cells were then stained by treatment with 1 μM COE-BYPhOC4 and the endocytosis inhibition efficiency was characterized by flow cytometry and fluorescence confocal imaging. […] The confocal images in FIG. 13C provide additional confirmation of this endocytosis pathway. Fluorescence signals are only observed on the plasma membranes in the chlorpromazine pretreated group, while COE-BYPhOC4 readily underwent endocytosis and appeared as red vesicular puncta in the other three groups. Successful plasma membrane staining similar to FIG. 12A also provides evidence of insertion into the membrane prior to endocytosis and subsequent trafficking together with other lipid molecules, as opposed to being directly engulfed within intracellular vesicles. This feature enables the dye to follow the endosomal pathway throughout the maturation process beginning from the plasma membrane, as opposed to commonly employed pH-dependent methods to control accumulation within vesicle subtypes.

[5] = system: A549 cells; assay: as above; format: cell-based; details: 1 μM dye, 3 h
Experimental: as §1

[6] = Two-photon absorption cross section; format: physicochemical; details: intercalated into SUVs
From the text: Dynamic biological processes in live cells often take place at a rapid time scale, necessitating rapid image acquisition. For 2P-FLIM applications, this is especially relevant since a significant photon count is required to ensure accurate decay statistics and lifetime values. Two-photon imaging provides access to the NIR-II window for excitation (1000-1700 nm), minimizing photodamage and eliminating out of focus noise. As such, dye brightness plays a key role in enabling high-quality imaging. We thus evaluated their two-photon absorption cross-section of the COE-BY series. […] These properties will become relevant when determining the utility of COE-BYPhOC4 to image the endocytosis pathway and different response of living cells.

[7] = system: HeLa cells; assay: Brightness of stained HeLa cells by flow cytometry; format: cell-based; details: FIG. 11
From the text: To evaluate their potential use as fluorescent probes for intracellular imaging, we first analyzed the brightness of each COE-BY molecule when used to stain HeLa cells using flow cytometry. As flow cytometry reports the fluorescence intensity per cell, this analysis would enable simultaneous evaluation of the cellular uptake and brightness. […] Based on these parameters, COE-BYPhOC4 was chosen for further in vitro imaging studies.

amplitude-weighted average emission lifetime τw ([1]; solution viscosity 22.5 cP): 0.5 ns | amplitude-weighted average emission lifetime τw ([1]; solution viscosity 939 cP): 1.2 ns | Lifetime ([2]; analyte HDL 0.5 mg/mL): 4.02 ± 0.01 ns | Lifetime ([2]; analyte PBS): 0.56 ± 0.01 ns | Lifetime ([2]; analyte SUV (POPC:POPG 85:15) 0.5 mg/mL): 1.99 ± 0.01 ns | Lifetime ([2]; analyte SUV CHOL (POPC:POPG:Cholesterol 42.5:7.5:50) 0.5 mg/mL): 2.18 ± 0.01 ns | fluorescence of stained GUV [3]: strong uniform fluorescence | two photon absorption cross section area [6]: 486 GM
Compound: CCCCOc1ccc(C2=C3C(C)=C(c4ccc(/C=C/c5cc(OCCCCCC[N+](C)(C)C)c(OCCCCCC[N+](C)(C)C)c(OCCCCCC[N+](C)(C)C)c5)cc4)C(C)=[N+]3[B-](F)(F)n3c(C)c(-c4ccc(/C=C/c5cc(OCCCCCC[N+](C)(C)C)c(OCCCCCC[N+](C)(C)C)c(OCCCCCC[N+](C)(C)C)c5)cc4)c(C)c32)cc1.[I-].[I-].[I-].[I-].[I-].[I-] [COE-BYPhOC4]
dye fluorescence intensity relative to the untreated group ([4]; chlorpromazine pretreatment): 21% | dye fluorescence intensity relative to the untreated group ([4]; genistein pretreatment): 92% | dye fluorescence intensity relative to the untreated group ([5]; A549, chlorpromazine pretreatment): 14% | dye fluorescence intensity relative to the untreated group ([5]; A549, genistein pretreatment): 95% | brightness of stained cells [7]: highest brightness
